Data as given in patent US20240000872A1, “NOVEL BACTERIOPHAGE THAT LYSES ACINETOBACTER GENUS BACTERIA HAVING RESISTANCE TO ANTIBIOTICS” (priority 2020, published 2024).

System: Acinetobacter baumannii strains
Assay: Antibiotic susceptibility test (CLSI disk diffusion test method, read per CLSI 2016); for antibiotic susceptibility S/I/R: key: ‘S’ means susceptible; ‘I’ means intermediate; ‘R’ means resistant; for susceptibility category (S/I/R): key: ‘S’ means susceptible; ‘I’ means intermediate; ‘R’ means resistant
Assay type: cell-based
Parameters: antibiotic susceptibility test value / susceptibility test value (number given before S/I/R) / antibiotic susceptibility value: unit not given here

piperacillin-tazobactam was tested, and the antibiotic susceptibility value (host strain YMC16/01/R353) was 128, the “susceptibility category (S/I/R)” value (host strain YMC16/01/R353) was “R” and the “susceptibility test value (number given before S/I/R)” value (“susceptibility test value” for short) (host strain YMC16/01/R353) was 128. The “antibiotic susceptibility S/I/R” value (host strain YMC16/01/R380) was “R”, the antibiotic susceptibility value (host strain YMC16/01/R380) was 128 and the “susceptibility category (S/I/R)” value (host strain YMC16/01/R380) was “R”. For the same substance, the “susceptibility test value” value (host strain YMC16/01/R380) was 128, the “antibiotic susceptibility S/I/R” value (host strain YMC16/01/R397) was “R” and the antibiotic susceptibility value (host strain YMC16/01/R397) was 128. For the same substance, the “susceptibility category (S/I/R)” value (host strain YMC16/01/R397) was “R”, the “susceptibility test value” value (host strain YMC16/01/R397) was 128 and the “antibiotic susceptibility S/I/R” value (host strain YMC16/01/R405) was “R”. The antibiotic susceptibility value (host strain YMC16/01/R405) was 128, the “susceptibility category (S/I/R)” value (host strain YMC16/01/R405) was “R” and the “susceptibility test value” value (host strain YMC16/01/R405) was 128. For the same substance, the “antibiotic susceptibility S/I/R” value (host strain YMC16/03/R4461) was “R”, the antibiotic susceptibility value (host strain YMC16/03/R4461) was 128 and the “susceptibility category (S/I/R)” value (host strain YMC16/03/R4461) was “R”. For the same substance, the “susceptibility test value” value (host strain YMC16/03/R4461) was 128, the “antibiotic susceptibility S/I/R” value (host strain YMC16/05/R2210) was “R” and the antibiotic susceptibility value (host strain YMC16/05/R2210) was 128. For the same substance, the “susceptibility category (S/I/R)” value (host strain YMC16/05/R2210) was “R”, the “susceptibility test value” value (host strain YMC16/05/R2210) was 128 and the “antibiotic susceptibility S/I/R” value (host strain YMC16/07/R2512) was “R”. For the same substance, the antibiotic susceptibility value (host strain YMC16/07/R2512) was 128, the “susceptibility category (S/I/R)” value (host strain YMC16/07/R2512) was “R” and the “susceptibility test value” value (host strain YMC16/07/R2512) was 128. For the same substance, the “antibiotic susceptibility S/I/R” value (host strain YMC16/09/R2471) was “R”, the antibiotic susceptibility value (host strain YMC16/09/R2471) was 128 and the “susceptibility category (S/I/R)” value (host strain YMC16/09/R2471) was “R”. The “susceptibility test value” value (host strain YMC16/09/R2471) was 128, the “antibiotic susceptibility S/I/R” value (host strain YMC16/10/R2537) was “R” and the antibiotic susceptibility value (host strain YMC16/10/R2537) was 128. For the same substance, the “susceptibility category (S/I/R)” value (host strain YMC16/10/R2537) was “R”, the “susceptibility test value” value (host strain YMC16/10/R2537) was 128 and the “antibiotic susceptibility S/I/R” value (host strain YMC16/12/B11422) was “R”. For the same substance, the antibiotic susceptibility value (host strain YMC16/12/B11422) was 128, the “susceptibility category (S/I/R)” value (host strain YMC16/12/B11422) was “R” and the “susceptibility test value” value (host strain YMC16/12/B11422) was 128. The “antibiotic susceptibility S/I/R” value (host strain YMC16/12/B11449) was “R”, the antibiotic susceptibility value (host strain YMC16/12/B11449) was 128 and the “susceptibility category (S/I/R)” value (host strain YMC16/12/B11449) was “R”. For the same substance, the “susceptibility test value” value (host strain YMC16/12/B11449) was 128, the “antibiotic susceptibility S/I/R” value (host strain YMC16/12/B13325) was “R” and the antibiotic susceptibility value (host strain YMC16/12/B13325) was 128. The “susceptibility category (S/I/R)” value (host strain YMC16/12/B13325) was “R”, the “susceptibility test value” value (host strain YMC16/12/B13325) was 128 and the “antibiotic susceptibility S/I/R” value (host strain YMC16/12/P503) was “R”. The antibiotic susceptibility value (host strain YMC16/12/P503) was 128, the “susceptibility category (S/I/R)” value (host strain YMC16/12/P503) was “R” and the “susceptibility test value” value (host strain YMC16/12/P503) was 128. The “antibiotic susceptibility S/I/R” value (host strain YMC16/12/R4637) was “R”, the antibiotic susceptibility value (host strain YMC16/12/R4637) was 128 and the “susceptibility category (S/I/R)” value (host strain YMC16/12/R4637) was “R”. The “susceptibility test value” value (host strain YMC16/12/R4637) was 128, the “antibiotic susceptibility S/I/R” value (host strain YMC17/01/B8053) was “R” and the antibiotic susceptibility value (host strain YMC17/01/B8053) was 128. The “susceptibility category (S/I/R)” value (host strain YMC17/01/B8053) was “R”, the “susceptibility test value” value (host strain YMC17/01/B8053) was 128 and the “antibiotic susceptibility S/I/R” value (host strain YMC17/01/B10087) was “R”. The antibiotic susceptibility value (host strain YMC17/01/B10087) was 128, the “susceptibility category (S/I/R)” value (host strain YMC17/01/B10087) was “R” and the “susceptibility test value” value (host strain YMC17/01/B10087) was 128. The “antibiotic susceptibility S/I/R” value (host strain YMC17/01/B12075) was “R”, the antibiotic susceptibility value (host strain YMC17/01/B12075) was 128 and the “susceptibility category (S/I/R)” value (host strain YMC17/01/B12075) was “R”. The “susceptibility test value” value (host strain YMC17/01/B12075) was 128, the “antibiotic susceptibility S/I/R” value (host strain YMC17/01/B13454) was “R” and the antibiotic susceptibility value (host strain YMC17/01/B13454) was 128. For the same substance, the “susceptibility category (S/I/R)” value (host strain YMC17/01/B13454) was “R”, the “susceptibility test value” value (host strain YMC17/01/B13454) was 128 and the “antibiotic susceptibility S/I/R” value (host strain YMC17/01/P518) was “R”. The antibiotic susceptibility value (host strain YMC17/01/P518) was 128, the “susceptibility category (S/I/R)” value (host strain YMC17/01/P518) was “R” and the “susceptibility test value” value (host strain YMC17/01/P518) was 128. For the same substance, the “antibiotic susceptibility S/I/R” value (host strain YMC17/01/R2812) was “R”, the antibiotic susceptibility value (host strain YMC17/01/R2812) was 128 and the “susceptibility category (S/I/R)” value (host strain YMC17/01/R2812) was “R”. For the same substance, the “susceptibility test value” value (host strain YMC17/01/R2812) was 128, the “antibiotic susceptibility S/I/R” value (host strain YMC17/02/B14) was “R” and the antibiotic susceptibility value (host strain YMC17/02/B14) was 128. For the same substance, the “susceptibility category (S/I/R)” value (host strain YMC17/02/B14) was “R”, the “susceptibility test value” value (host strain YMC17/02/B14) was 128 and the “antibiotic susceptibility S/I/R” value (host strain YMC17/02/B87) was “R”. The antibiotic susceptibility value (host strain YMC17/02/B87) was 128, the “susceptibility category (S/I/R)” value (host strain YMC17/02/B87) was “R” and the “susceptibility test value” value (host strain YMC17/02/B87) was 128. For the same substance, the “antibiotic susceptibility S/I/R” value (host strain YMC17/02/B721) was “R”, the antibiotic susceptibility value (host strain YMC17/02/B721) was 128 and the “susceptibility category (S/I/R)” value (host strain YMC17/02/B721) was “R”. The “susceptibility test value” value (host strain YMC17/02/B721) was 128, the “antibiotic susceptibility S/I/R” value (host strain YMC17/02/B4039) was “R” and the antibiotic susceptibility value (host strain YMC17/02/B4039) was 128. For the same substance, the “susceptibility category (S/I/R)” value (host strain YMC17/02/B4039) was “R”, the “susceptibility test value” value (host strain YMC17/02/B4039) was 128 and the “antibiotic susceptibility S/I/R” value (host strain YMC17/02/B4520) was “R”. For the same substance, the antibiotic susceptibility value (host strain YMC17/02/B4520) was 128, the “susceptibility category (S/I/R)” value (host strain YMC17/02/B4520) was “R” and the “susceptibility test value” value (host strain YMC17/02/B4520) was 128. The “antibiotic susceptibility S/I/R” value (host strain YMC17/02/B4864) was “S”, the antibiotic susceptibility value (host strain YMC17/02/B4864) was 4 and the “susceptibility category (S/I/R)” value (host strain YMC17/02/B4864) was “S”. For the same substance, the “susceptibility test value” value (host strain YMC17/02/B4864) was 4, the “antibiotic susceptibility S/I/R” value (host strain YMC17/02/B8414) was “R” and the antibiotic susceptibility value (host strain YMC17/02/B8414) was 128. The “susceptibility category (S/I/R)” value (host strain YMC17/02/B8414) was “R”, the “susceptibility test value” value (host strain YMC17/02/B8414) was 128 and the “antibiotic susceptibility S/I/R” value (host strain YMC17/02/P523) was “R”. The antibiotic susceptibility value (host strain YMC17/02/P523) was 128, the “susceptibility category (S/I/R)” value (host strain YMC17/02/P523) was “R” and the “susceptibility test value” value (host strain YMC17/02/P523) was 128. For the same substance, the “antibiotic susceptibility S/I/R” value (host strain YMC17/02/R541) was “R”, the antibiotic susceptibility value (host strain YMC17/02/R541) was 128 and the “susceptibility category (S/I/R)” value (host strain YMC17/02/R541) was “R”. For the same substance, the “susceptibility test value” value (host strain YMC17/02/R541) was 128, the “antibiotic susceptibility S/I/R” value (host strain YMC17/02/R2392) was “R” and the antibiotic susceptibility value (host strain YMC17/02/R2392) was 128. For the same substance, the “susceptibility category (S/I/R)” value (host strain YMC17/02/R2392) was “R”, the “susceptibility test value” value (host strain YMC17/02/R2392) was 128 and the “antibiotic susceptibility S/I/R” value (host strain YMC17/03/B4730) was “R”. For the same substance, the antibiotic susceptibility value (host strain YMC17/03/B4730) was 128, the “susceptibility category (S/I/R)” value (host strain YMC17/03/B4730) was “R” and the “susceptibility test value” value (host strain YMC17/03/B4730) was 128. For the same substance, the “antibiotic susceptibility S/I/R” value (host strain YMC17/03/B5000) was “R”, the antibiotic susceptibility value (host strain YMC17/03/B5000) was 128 and the “susceptibility category (S/I/R)” value (host strain YMC17/03/B5000) was “R”. For the same substance, the “susceptibility test value” value (host strain YMC17/03/B5000) was 128, the “antibiotic susceptibility S/I/R” value (host strain YMC17/03/P971) was “R” and the antibiotic susceptibility value (host strain YMC17/03/P971) was 128. For the same substance, the “susceptibility category (S/I/R)” value (host strain YMC17/03/P971) was “R”, the “susceptibility test value” value (host strain YMC17/03/P971) was 128 and the “antibiotic susceptibility S/I/R” value (host strain YMC17/03/R348) was “R”. For the same substance, the antibiotic susceptibility value (host strain YMC17/03/R348) was 128, the “susceptibility category (S/I/R)” value (host strain YMC17/03/R348) was “R” and the “susceptibility test value” value (host strain YMC17/03/R348) was 128. The “antibiotic susceptibility S/I/R” value (host strain YMC17/03/R585) was “R”, the antibiotic susceptibility value (host strain YMC17/03/R585) was 128 and the “susceptibility category (S/I/R)” value (host strain YMC17/03/R585) was “R”. The “susceptibility test value” value (host strain YMC17/03/R585) was 128, the “antibiotic susceptibility S/I/R” value (host strain YMC17/03/R1888) was “R” and the antibiotic susceptibility value (host strain YMC17/03/R1888) was 128. For the same substance, the “susceptibility category (S/I/R)” value (host strain YMC17/03/R1888) was “R”, the “susceptibility test value” value (host strain YMC17/03/R1888) was 128 and the “antibiotic susceptibility S/I/R” value (host strain YMC17/03/R3279) was “R”. For the same substance, the antibiotic susceptibility value (host strain YMC17/03/R3279) was 128, the “susceptibility category (S/I/R)” value (host strain YMC17/03/R3279) was “R” and the “susceptibility test value” value (host strain YMC17/03/R3279) was 128. For the same substance, the “antibiotic susceptibility S/I/R” value (host strain YMC17/03/R4077) was “R”, the antibiotic susceptibility value (host strain YMC17/03/R4077) was 128 and the “susceptibility category (S/I/R)” value (host strain YMC17/03/R4077) was “R”. The “susceptibility test value” value (host strain YMC17/03/R4077) was 128, the “antibiotic susceptibility S/I/R” value (host strain YMC17/03/R4607) was “R” and the antibiotic susceptibility value (host strain YMC17/03/R4607) was 128. For the same substance, the “susceptibility category (S/I/R)” value (host strain YMC17/03/R4607) was “R”, the “susceptibility test value” value (host strain YMC17/03/R4607) was 128 and the “antibiotic susceptibility S/I/R” value (host strain YMC17/04/R488) was “R”. For the same substance, the antibiotic susceptibility value (host strain YMC17/04/R488) was 128, the “susceptibility category (S/I/R)” value (host strain YMC17/04/R488) was “R” and the “susceptibility test value” value (host strain YMC17/04/R488) was 128. The “antibiotic susceptibility S/I/R” value (host strain YMC17/04/R640) was “R”, the antibiotic susceptibility value (host strain YMC17/04/R640) was 128 and the “susceptibility category (S/I/R)” value (host strain YMC17/04/R640) was “R”. The “susceptibility test value” value (host strain YMC17/04/R640) was 128, the “antibiotic susceptibility S/I/R” value (host strain YMC/17/05/R1095) was “R” and the antibiotic susceptibility value (host strain YMC/17/05/R1095) was 128. The “susceptibility category (S/I/R)” value (host strain YMC/17/05/R1095) was “R” and the “susceptibility test value” value (host strain YMC/17/05/R1095) was 128.
